Test results as given in ChEMBL document CHEMBL5608244, “Preclinical Evaluation of Dihydropyrazole-Cored Positron Emission Tomography (PET) Ligands for Imaging of Receptor-Interacting Serine/Threonine Protein Kinase 1 (RIPK1) in the Brain” (J Med Chem, 2024).

Tests used:
[1] = Retention time of the compound by HPLC method; type: physicochemical
[2] = Stability in Balb/c mouse plasma measured for 60 to 150 mins by reversed-phase HPLC analysis; type: ADME; details: time 60-150 min
[3] = Lipophilicity, logD of compound at pH 7.4 by shake flask method; type: physicochemical; details: buffer
[4] = Drug uptake in cerebellum of ICR mouse brain at 0.5 to 10 uM incubated for 30 mins by Phosphor Imager analysis; type: ADME, tissue-based; details: 0.5 h, dose 0.5-10 µM
[5] = Drug uptake in thalamus of ICR mouse brain assessed as reduction in radioactivity at 0.5 to 10 uM incubated for 30 mins in presence of 1 uM of GSK'547 by Phosphor Imager analysis; type: ADME, tissue-based; parameters: scale not given: the % may be the effect or the level left; details: 0.5 h, dose 0.5-10 µM
[6] = Drug uptake in thalamus of ICR mouse brain assessed as reduction in radioactivity incubated for 30 mins in presence of GSK'547 by Phosphor Imager analysis; type: ADME, tissue-based; details: 0.5 h
[7] = Drug uptake in thalamus of ICR mouse brain assessed as reduction in radioactivity incubated for 30 mins in presence of 0.5 uM of 1-(5-(3-fluorophenyl)-4,5-dihydro-1H-pyrazol-1-yl)-2,2-dimethylpropan-1-one by Phosphor Imager analysis; type: ADME, tissue-based; parameters: scale not given: the % may be the effect or the level left; details: 0.5 h
[8] = Drug uptake in thalamus of ICR mouse brain assessed as reduction in radioactivity incubated for 30 mins in presence of 0.5 uM of GSK'547 by Phosphor Imager analysis; type: ADME, tissue-based; parameters: scale not given: the % may be the effect or the level left; details: 0.5 h
[9] = Biodistribution in ICR mouse blood at 0.74 MBq, iv measured after 2 mins by automatic gamma counter analysis; type: ADME, organism-based; details: in vivo
[10] = Biodistribution in ICR mouse brain at 0.74 MBq, iv measured after 2 mins by automatic gamma counter analysis; type: ADME, organism-based; details: in vivo
[11] = Biodistribution in ICR mouse heart at 0.74 MBq, iv measured after 2 mins by automatic gamma counter analysis; type: ADME, organism-based; details: in vivo
[12] = Biodistribution in ICR mouse kidneys at 0.74 MBq, iv measured after 2 mins by automatic gamma counter analysis; type: ADME, organism-based, Kidney; details: in vivo
[13] = Biodistribution in ICR mouse bone at 0.74 MBq, iv measured after 2 mins by automatic gamma counter analysis; type: ADME, organism-based, Bone element; details: in vivo
[14] = Biodistribution in ICR mouse stomach at 0.74 MBq, iv measured after 2 mins by automatic gamma counter analysis; type: ADME, organism-based; details: in vivo
[15] = Biodistribution in ICR mouse heart at 0.74 MBq, iv measured after 10 mins by automatic gamma counter analysis; type: ADME, organism-based; details: in vivo
[16] = Biodistribution in ICR mouse liver at 0.74 MBq, iv measured after 10 mins by automatic gamma counter analysis; type: ADME, organism-based; details: in vivo
[17] = Biodistribution in ICR mouse spleen at 0.74 MBq, iv measured after 10 mins by automatic gamma counter analysis; type: ADME, organism-based; details: in vivo
[18] = Biodistribution in ICR mouse lung at 0.74 MBq, iv measured after 10 mins by automatic gamma counter analysis; type: ADME, organism-based; details: in vivo
[19] = Biodistribution in ICR mouse kidneys at 0.74 MBq, iv measured after 10 mins by automatic gamma counter analysis; type: ADME, organism-based, Kidney; details: in vivo
[20] = Biodistribution in ICR mouse blood at 0.74 MBq, iv measured after 30 mins by automatic gamma counter analysis; type: ADME, organism-based; details: in vivo, 0.5 h
[21] = Biodistribution in ICR mouse brain at 0.74 MBq, iv measured after 30 mins by automatic gamma counter analysis; type: ADME, organism-based; details: in vivo, 0.5 h
[22] = Biodistribution in ICR mouse liver at 0.74 MBq, iv measured after 30 mins by automatic gamma counter analysis; type: ADME, organism-based; details: in vivo, 0.5 h
[23] = Biodistribution in ICR mouse spleen at 0.74 MBq, iv measured after 30 mins by automatic gamma counter analysis; type: ADME, organism-based; details: in vivo, 0.5 h
[24] = Biodistribution in ICR mouse muscle at 0.74 MBq, iv measured after 30 mins by automatic gamma counter analysis; type: ADME, organism-based, Muscle tissue; details: in vivo, 0.5 h
[25] = Biodistribution in ICR mouse heart at 0.74 MBq, iv measured after 60 mins by automatic gamma counter analysis; type: ADME, organism-based; details: in vivo, 1 h
[26] = Biodistribution in ICR mouse lung at 0.74 MBq, iv measured after 60 mins by automatic gamma counter analysis; type: ADME, organism-based; details: in vivo, 1 h
[27] = Biodistribution in ICR mouse kidneys at 0.74 MBq, iv measured after 60 mins by automatic gamma counter analysis; type: ADME, organism-based, Kidney; details: in vivo, 1 h
[28] = Biodistribution in ICR mouse pancreas at 0.74 MBq, iv measured after 60 mins by automatic gamma counter analysis; type: ADME, organism-based; details: in vivo, 1 h
[29] = Biodistribution in ICR mouse bone at 0.74 MBq, iv measured after 60 mins by automatic gamma counter analysis; type: ADME, organism-based, Bone element; details: in vivo, 1 h
[30] = Biodistribution in ICR mouse small intestine at 0.74 MBq, iv measured after 60 mins by automatic gamma counter analysis; type: ADME, organism-based; details: in vivo, 1 h
[31] = Biodistribution in ICR mouse assessed as drug accumulation in lungs at 0.74 MBq, iv pretreated with GSK'547 followed by compound administration measured after 10 mins by automatic gamma counter analysis; type: ADME, organism-based; details: in vivo
[32] = Biodistribution in ICR mouse assessed as drug accumulation in bone without marrow at 0.74 MBq, iv pretreated with 1-(5-(3-fluorophenyl)-4,5-dihydro-1H-pyrazol-1-yl)-2,2-dimethylpropan-1-one followed by compound administration measured after 10 mins by automatic gamma counter analysis; type: ADME, organism-based; details: in vivo
[33] = Biodistribution in ICR mouse assessed as decrease in drug accumulation in bone with marrow at 0.74 MBq, iv pretreated with GSK'547 followed by compound administration measured after 10 mins by automatic gamma counter analysis; type: ADME, organism-based; parameters: scale not given: the % may be the effect or the level left; details: in vivo
[34] = Drug metabolism in mouse brain assessed as parent compound remaining at 13.5 MBq, iv measured after 30 mins by HPLC analysis; type: ADME, organism-based; details: read-out: Activity
[35] = Drug metabolism in mouse plasma assessed as parent compound remaining at 13.5 MBq, iv measured after 30 mins by HPLC analysis; type: ADME, organism-based; details: read-out: Activity
[36] = Drug metabolism in mouse liver assessed as polar radiometabolites accumulation at 13.5 MBq, iv measured after 30 mins by HPLC analysis; type: ADME, organism-based; details: in vivo, 0.5 h
[37] = Drug uptake in Sprague-Dawley rat bone at 10 to 17.6 MBq, iv treated upto 30 mins by PET analysis; type: ADME, organism-based, Bone element; details: in vivo, 0.5 h, dose 10-17.6 MBq
[38] = Drug uptake in Sprague-Dawley rat brain assessed as reduction in radioactivity at 10 to 17.6 MBq, iv pretreated with GSK'547 followed by compound administration measured upto 30 mins by PET analysis; type: ADME, organism-based; parameters: scale not given: the % may be the effect or the level left; details: in vivo, 0.5 h, dose 10-17.6 MBq
[39] = Drug uptake in Sprague-Dawley rat brain assessed as reduction in radioactivity at 10 to 17.6 MBq, iv pretreated with 1-(5-(3-fluorophenyl)-4,5-dihydro-1H-pyrazol-1-yl)-2,2-dimethylpropan-1-one followed by compound administration measured upto 30 mins by PET analysis; type: ADME, organism-based; parameters: scale not given: the % may be the effect or the level left; details: in vivo, 0.5 h, dose 10-17.6 MBq
[40] = Drug uptake in brain of TNF-alpha-induced SIRS Sprague-Dawley rat model at 9.9 to 14.8 MBq, iv measured for 5 mins by PET analysis; type: ADME, organism-based; details: in vivo, dose 9.9-14.8 MBq
[41] = Drug uptake in brain of Sprague-Dawley rat at 9.9 to 14.8 MBq, iv measured for 5 mins by PET analysis; type: ADME, organism-based; details: in vivo, dose 9.9-14.8 MBq
[42] = Drug uptake in brain of Sprague-Dawley rat at 9.9 to 14.8 MBq, iv pretreated with 1-(5-(3-fluorophenyl)-4,5-dihydro-1H-pyrazol-1-yl)-2,2-dimethylpropan-1-one measured upto 20 mins by PET analysis; type: ADME, organism-based; details: in vivo, dose 9.9-14.8 MBq

Compound: CC(C)(C)C(=O)N1N=CCC1c1cccc([18F])c1 (configuration not stated)
- Retention_time [1]: 21.84 min
- Stability [2]: > 98%
- logD [3]: 2.25
- Drug uptake [4]: Active
- Activity [5]: ~ 18%
- Activity [6]: Dose-Dependent Effect
- Activity [7]: ~ 5%
- Activity [8]: ~ 5%
- Drug uptake [9]: 4.79 % ID/g
- Drug uptake [10]: 4.89 % ID/g
- Drug uptake [11]: 6.8 % ID/g
- Drug uptake [12]: 10.39 % ID/g
- Drug uptake [13]: 3.3 % ID/g
- Drug uptake [14]: 0.9 % ID/g
- Drug uptake [15]: 3.27 % ID/g
- Drug uptake [16]: 11.39 % ID/g
- Drug uptake [17]: 1.99 % ID/g
- Drug uptake [18]: 7.23 % ID/g
- Drug uptake [19]: 18.03 % ID/g
- Drug uptake [20]: 2.96 % ID/g
- Drug uptake [21]: 0.48 % ID/g
- Drug uptake [22]: 7.56 % ID/g
- Drug uptake [23]: 0.91 % ID/g
- Drug uptake [24]: 1.13 % ID/g
- Drug uptake [25]: 0.5 % ID/g
- Drug uptake [26]: 1.03 % ID/g
- Drug uptake [27]: 3.95 % ID/g
- Drug uptake [28]: 1.46 % ID/g
- Drug uptake [29]: 5.69 % ID/g
- Drug uptake [30]: 30.6 % ID/g
- Drug uptake [31]: 15.6%
- Drug uptake [32]: 21%
- Activity [33]: 11.9%
- remaining at 0.5 h [34]: 22.4%
- remaining at 0.5 h [35]: 1.2%
- Drug metabolism [36]: Metabolite_Detected
- Drug uptake [37]: Not Active
- Activity [38]: 25.9%
- Activity [39]: 21.7%
- Drug uptake [40]: Active
- Drug uptake [41]: Active
- Drug uptake [42]: 9.8%
